Data as given in patent US20200405696A1, “INHIBITORS OF INDOLEAMINE 2,3-DIOXYGENASE AND/OR TRYPTOPHAN 2,3-DIOXYGENASE” (IDORSIA PHARMACEUTICALS LTD, priority 2018, published 2020).

Assays:
[1] = molecular target: T1, Recombinant human TDO comprising amino acids 19-407 (Homo sapiens, UniProt P48775); assay: TDO2 enzymatic assay (NFK quantified by LCMS); type: biochemical; conditions: 15 nM enzyme, 200 μM L-tryptophan, pH7, 30 minutes pre-incubation at RT; mean values when measured multiple times; read-out: hTDO activity (IC50 in nM)
T1 construct: Recombinant human TDO comprising amino acids 19-407 with a N-terminal hexahistidine tag; hexahistidine (His6) (N); made in house; host or cells: E. coli
T1 sequence (P48775 19-406 limits assumed): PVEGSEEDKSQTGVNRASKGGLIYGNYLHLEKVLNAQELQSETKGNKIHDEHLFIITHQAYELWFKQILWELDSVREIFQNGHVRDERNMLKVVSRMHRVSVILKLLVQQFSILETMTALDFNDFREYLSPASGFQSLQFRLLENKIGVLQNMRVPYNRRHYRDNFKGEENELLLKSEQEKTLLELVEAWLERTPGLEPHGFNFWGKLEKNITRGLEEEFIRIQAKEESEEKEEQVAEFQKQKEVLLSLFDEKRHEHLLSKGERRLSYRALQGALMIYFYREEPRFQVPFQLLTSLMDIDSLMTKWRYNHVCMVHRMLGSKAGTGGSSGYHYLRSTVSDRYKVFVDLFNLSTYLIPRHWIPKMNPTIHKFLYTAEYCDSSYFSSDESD
Summary of the method: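 NFK formed over 30 min at RT from 200 μM L-tryptophan was measured by LCMS, normalized to d5-tryptophan, after compound (0.5 nM–10 μM, duplicates, 0.6% DMSO) was preincubated 30 min with 15 nM recombinant His-tagged TDO 19-407 in phosphate buffer pH 7. IC50 from four-parameter logistic fit; repeats averaged.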

[2] = molecular target: T2, Recombinant full-length human IDO1 (Homo sapiens, UniProt P14902); assay: IDO1 enzymatic assay (NFK quantified by LCMS); type: biochemical; conditions: 2 nM enzyme, 5 μM L-tryptophan, pH6.5, 30 minutes pre-incubation at RT; mean values when measured multiple times; read-out: hIDO activity (IC50 in nM)
T2 construct: Recombinant full-length human IDO1 with a N-terminal hexahistidine tag; hexahistidine (His6) (N); made in house; host or cells: E. coli
T2 sequence (P14902 whole entry): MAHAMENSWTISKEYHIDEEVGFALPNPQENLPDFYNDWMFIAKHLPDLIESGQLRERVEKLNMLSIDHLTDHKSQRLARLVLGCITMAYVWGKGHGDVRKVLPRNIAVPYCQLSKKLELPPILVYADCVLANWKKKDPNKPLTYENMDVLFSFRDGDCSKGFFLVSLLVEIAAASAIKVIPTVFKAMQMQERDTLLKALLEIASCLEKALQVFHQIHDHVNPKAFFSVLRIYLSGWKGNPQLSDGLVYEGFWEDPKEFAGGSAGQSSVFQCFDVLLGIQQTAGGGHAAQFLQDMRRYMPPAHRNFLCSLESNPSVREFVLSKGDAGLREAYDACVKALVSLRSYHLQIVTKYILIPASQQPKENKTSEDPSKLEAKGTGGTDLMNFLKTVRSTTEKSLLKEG
Summary of the method: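 His-tagged human IDO1 (2 nM) in pH 6.5 phosphate buffer with ascorbate, methylene blue and catalase was preincubated with compound (10 μM–0.5 nM, 0.6% DMSO) for 30 min at RT. The reaction then ran with 5 μM L-Trp for 30 min. NFK was measured by LCMS against a d5-Trp standard, and IC50 was obtained by four-parameter fit.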

In the case of `N#Cc1cccc(-n2cc([C@H](O)c3c(C4CC4)sc4cncn34)nn2)c1` [Example 18a, 3-{4-[(R)-(2-Cyclopropyl-imidazo[5,1-b]thiazol-3-yl)-hydroxy-methyl]-[1,2,3]triazol-1-yl}-benzonitrile], the IC50 [1] is reported as over 10200 nM and the IC50 [2] is reported as 13.5 nM.

Work on `CCCC=Cc1sc2cncn2c1C(O)c1cn(-c2ccc(OC)cc2)nn1` (racemic) [Example 271, rac-[1-(4-Methoxy-phenyl)-1H-[1,2,3]triazol-4-yl]-[((E)-2-(pent-1-enyl))-imidazo[5,1-b]thiazol-3-yl]-methanol] yielded an IC50 [1] of over 10200 nM and an IC50 [2] of 225 nM.

For `COc1ccc(-n2cc(C(O)c3c(C4CC4)sc4cncn34)nn2)cc1Br` (racemic) [Example 290, rac-[1-(3-Bromo-4-methoxy-phenyl)-1H-[1,2,3]triazol-4-yl]-(2-cyclopropyl-imidazo[5,1-b]thiazol-3-yl)-methanol], the IC50 [1] was over 10200 nM and the IC50 [2] was 15.3 nM.

Work on `CCc1sc2cncn2c1C(O)c1cn(-c2ccc(OCCC(C)(C)O)c(Cl)c2)nn1` (racemic) [Example 302, rac-4-(2-Chloro-4-{4-[(2-ethyl-imidazo[5,1-b]thiazol-3-yl)-hydroxy-methyl]-[1,2,3]triazol-1-yl}-phenoxy)-2-methyl-butan-2-ol] yielded an IC50 [1] of over 10200 nM and an IC50 [2] of 6.88 nM.

In the case of `CC(C)C(=O)Nc1ccc(-n2cc([C@H](O)c3c(C4CC4)sc4cncn34)nn2)cc1` [Example 192a, N-(4-{4-[(R)-(2-Cyclopropyl-imidazo[5,1-b]thiazol-3-yl)-hydroxy-methyl]-[1,2,3]triazol-1-yl}-phenyl)-isobutyramide], the IC50 [1] is reported as over 10200 nM and the IC50 [2] is reported as 3.71 nM.

Work on `OC(c1cn(-c2cncnc2)nn1)c1c(C2CC2)sc2cncn12` (racemic) [Example 19, rac-(2-Cyclopropyl-imidazo[5,1-b]thiazol-3-yl)-(1-pyrimidin-5-yl-1H-[1,2,3]triazol-4-yl)-methanol] yielded an IC50 [1] of over 10200 nM and an IC50 [2] of 182 nM.

`O[C@@H](c1cn(-c2ccccc2)nn1)c1c(C2CC2)sc2cncn12` [Example 2a, (R)-(2-Cyclopropyl-imidazo[5,1-b]thiazol-3-yl)-(1-phenyl-1H-[1,2,3]triazol-4-yl)-methanol] showed an IC50 [1] of over 10200 nM and an IC50 [2] of 11.7 nM.

In the case of `CCNS(=O)(=O)c1ccc(-n2cc(C(O)c3c(C4CC4)sc4cncn34)nn2)cc1` (racemic) [Example 239, rac-4-{4-[(2-Cyclopropyl-imidazo[5,1-b]thiazol-3-yl)-hydroxy-methyl]-[1,2,3]triazol-1-yl}-N-ethyl-benzenesulfonamide], the IC50 [1] is reported as over 10200 nM and the IC50 [2] is reported as 53 nM.

Work on `COC(=O)Nc1ccc(-n2cc(C(O)c3c(C4CC4)sc4cncn34)cn2)cc1` (racemic) [Example 132, rac-(4-{4-[(2-Cyclopropyl-imidazo[5,1-b]thiazol-3-yl)-hydroxy-methyl]-pyrazol-1-yl}-phenyl)-carbamic Acid Methyl Ester] yielded an IC50 [1] of 1770 nM and an IC50 [2] of 18.2 nM.

Compound `Oc1ccc(-n2cc(C(O)c3c(C4CC4)sc4cncn34)nn2)c(F)c1` (racemic) [Example 208, rac-4-{4-[(2-Cyclopropyl-imidazo[5,1-b]thiazol-3-yl)-hydroxy-methyl]-[1,2,3]triazol-1-yl}-3-fluoro-phenol] has an IC50 [1] of 6400 nM and an IC50 [2] of 9.58 nM.

In the case of `COc1cccc(-c2ccc(C(O)c3c(C4CC4)sc4cncn34)s2)c1` (racemic) [Example 167, rac-(2-Cyclopropyl-imidazo[5,1-b]thiazol-3-yl)-[5-(3-methoxy-phenyl)-thiophen-2-yl]-methanol], the IC50 [1] is reported as over 10200 nM and the IC50 [2] is reported as 639 nM.

In the case of `OC(c1cn(-c2ccccc2)cn1)c1c(C2CC2)sc2cncn12` (racemic) [Example 178, rac-(2-Cyclopropyl-imidazo[5,1-b]thiazol-3-yl)-(1-phenyl-1H-imidazol-4-yl)-methanol], the IC50 [1] is reported as over 10200 nM and the IC50 [2] is reported as 515 nM.

`OC(c1cn(-c2ccc3c(c2)OCCO3)nn1)c1c(C2CC2)sc2cncn12` (racemic) [Example 39, rac-(2-Cyclopropyl-imidazo[5,1-b]thiazol-3-yl)-[1-(2,3-dihydro-benzo[1,4]dioxin-6-yl)-1H-[1,2,3]triazol-4-yl]-methanol] was tested, and the IC50 [1] was over 10200 nM and the IC50 [2] was 21.9 nM.

`COc1ncc(-n2cc(C(O)c3c(C4CC4)sc4cncn34)nn2)c(OC)n1` (racemic) [Example 84, rac-(2-Cyclopropyl-imidazo[5,1-b]thiazol-3-yl)-[1-(2,4-dimethoxy-pyrimidin-5-yl)-1H-[1,2,3]triazol-4-yl]-methanol] showed an IC50 [1] of over 10200 nM and an IC50 [2] of 81.7 nM.

Compound `Cc1ccc(-n2cc(C(O)c3c(C4CC4)sc4cncn34)nn2)cc1` (racemic) [Example 4, rac-(2-Cyclopropyl-imidazo[5,1-b]thiazol-3-yl)-(1-p-tolyl-1H-[1,2,3]triazol-4-yl)-methanol] has an IC50 [1] of over 10200 nM and an IC50 [2] of 34.5 nM.

`Cc1cc(-n2cc(C(O)c3c(C4CC4)sc4cncn34)nn2)ccc1O` (racemic) [Example 211, rac-4-{4-[(2-Cyclopropyl-imidazo[5,1-b]thiazol-3-yl)-hydroxy-methyl]-[1,2,3]triazol-1-yl}-2-methyl-phenol] gave an IC50 [1] of over 10200 nM and an IC50 [2] of 15.8 nM.

Work on `CCc1sc2cncn2c1C(O)c1cn(-c2ccc(C(=O)NCc3ccco3)cc2)nn1` (racemic) [Example 123, rac-4-{4-[(2-Ethyl-imidazo[5,1-b]thiazol-3-yl)-hydroxy-methyl]-[1,2,3]triazol-1-yl}-N-furan-2-ylmethyl-benzamide] yielded an IC50 [1] of 6770 nM and an IC50 [2] of 8.09 nM.

Compound `Cn1nncc1-c1ccc(C(O)c2c(C3CC3)sc3cncn23)s1` (racemic) [Example 174, rac-(2-Cyclopropyl-imidazo[5,1-b]thiazol-3-yl)-[5-(3-methyl-3H-[1,2,3]triazol-4-yl)-thiophen-2-yl]-methanol] has an IC50 [1] of 7710 nM and an IC50 [2] of 279 nM.

For `OC(c1cn(-c2ccnc3ccccc23)nn1)c1c(C2CC2)sc2cncn12` (racemic) [Example 25, rac-(2-Cyclopropyl-imidazo[5,1-b]thiazol-3-yl)-(1-quinolin-4-yl-1H-[1,2,3]triazol-4-yl)-methanol], the IC50 [1] was over 10200 nM and the IC50 [2] was 18.3 nM.

`CC1(COc2ccc(-n3cc(C(O)c4c(C5CC5)sc5cncn45)nn3)cc2)COC1` (racemic) [Example 144, rac-(2-Cyclopropyl-imidazo[5,1-b]thiazol-3-yl)-{1-[4-(3-methyl-oxetan-3-ylmethoxy)-phenyl]-1H-[1,2,3]triazol-4-yl}-methanol] showed an IC50 [1] of over 10200 nM and an IC50 [2] of 11.2 nM.

Work on `O=C(c1ccc(-n2cc(C(O)c3c(C4CC4)sc4cncn34)nn2)cc1)N1CCOCC1` (racemic) [Example 103, rac-(4-{4-[(2-Cyclopropyl-imidazo[5,1-b]thiazol-3-yl)-hydroxy-methyl]-[1,2,3]triazol-1-yl}-phenyl)-morpholin-4-yl-methanone] yielded an IC50 [1] of over 10200 nM and an IC50 [2] of 78.1 nM.

`OCCCOc1ccc(-n2cc([C@H](O)c3c(C4CC4)sc4cncn34)nn2)cc1Cl` [Example 275, 3-(2-Chloro-4-{4-[(R)-(2-cyclopropyl-imidazo[5,1-b]thiazol-3-yl)-hydroxy-methyl]-[1,2,3]triazol-1-yl}-phenoxy)-propan-1-ol] gave an IC50 [1] of over 10200 nM and an IC50 [2] of 7.03 nM.

Compound `CCc1sc2cncn2c1C(O)c1cn(-c2ccc(NC(=O)c3ccccc3)cc2)nn1` (racemic) [Example 230, rac-N-(4-{4-[(2-Ethyl-imidazo[5,1-b]thiazol-3-yl)-hydroxy-methyl]-[1,2,3]triazol-1-yl}-phenyl)-benzamide] has an IC50 [1] of 2710 nM and an IC50 [2] of 28.7 nM.

For `OC(c1cn(-c2ccc(OCCC3(O)CC3)cc2)nn1)c1c(C2CC2)sc2cncn12` (racemic) [Example 142, rac-1-[2-(4-{4-[(2-Cyclopropyl-imidazo[5,1-b]thiazol-3-yl)-hydroxy-methyl]-[1,2,3]triazol-1-yl}-phenoxy)-ethyl]-cyclopropanol], the IC50 [1] was over 10200 nM and the IC50 [2] was 13.3 nM.

For `CCc1sc2cncn2c1C(O)c1cn(-c2ccc(NC(=O)OC(C)(C)C)cc2)nn1` (racemic) [Example 234, rac-(4-{4-[(2-Ethyl-imidazo[5,1-b]thiazol-3-yl)-hydroxy-methyl]-[1,2,3]triazol-1-yl}-phenyl)-carbamic Acid Tert-Butyl Ester], the IC50 [1] was 7940 nM and the IC50 [2] was 36.7 nM.

Work on `O[C@@H](c1cn(-c2ccc(OCC3(F)COC3)cc2)nn1)c1c(C2CC2)sc2cncn12` [Example 145a, (R)-(2-Cyclopropyl-imidazo[5,1-b]thiazol-3-yl)-{1-[4-(3-fluoro-oxetan-3-ylmethoxy)-phenyl]-1H-[1,2,3]triazol-4-yl}-methanol] yielded an IC50 [1] of over 10200 nM and an IC50 [2] of 8.77 nM.

`CNS(=O)(=O)Nc1ccc(-n2cc(C(O)c3c(C4CC4)sc4cncn34)nn2)cc1` (racemic) [Example 256, rac-4-{4-[(2-Cyclopropyl-imidazo[5,1-b]thiazol-3-yl)-hydroxy-methyl]-[1,2,3]triazol-1-yl}-((N-methylsulfamoyl)amino)-benzene] was tested, and the IC50 [1] was over 10200 nM and the IC50 [2] was 26.3 nM.

Work on `COc1cc(C)c(-n2cc(C(O)c3c(C4CC4)sc4cncn34)nn2)c(C)c1` (racemic) [Example 311, rac-(2-Cyclopropyl-imidazo[5,1-b]thiazol-3-yl)-[1-(4-methoxy-2,6-dimethyl-phenyl)-1H-[1,2,3]triazol-4-yl]-methanol] yielded an IC50 [1] of over 10200 nM and an IC50 [2] of 137 nM.
